Where a name gives a salt, the structure may show the parent alone. Read-outs that look alike come from different tables or passages of the source.
Experiment: Solvent solubility screen by solvent addition technique
Assay type: physicochemical
Conditions: for observation in solubility screen: 40° C.; for solubility: 40 °C, thermodynamic from solid, amorphous input, read-out: Solubility (mg/mL) at 40° C.
Description: The amorphous form of Compound A bis-mesylate salt was used as the input material for the solubility screen. Solubility values were estimated by a solvent addition technique in order to provide approximate values for generating slurries during later experiments. Approximately 15 mg of amorphous material was weighed out into 24 vials. Each solvent was added to the appropriate vial in 10 aliquots of 10 μl, 5 aliquots of 20 μl, 3 aliquots of 100 μl and 1 aliquot of 500 μl or until the material dissolved. In between additions, the sample was heated to 40° C. To vials which already contained 1000 μl of solvent but still had observable solid material, a further aliquot of 1000 μl of solvent was added. If 2000 μl of solvent was added without dissolution of the solid, solubility was calculated to be below this point.

Nc1ncccc1-c1nc2ccc(-c3ccccc3)nc2n1-c1ccc(C2(N)CCC2)cc1 [Compound A bis-mesylate salt, 3-(3-(4-(1-aminocyclobutyl)phenyl)-5-phenyl-3H-imidazo[4,5-b]pyridin-2-yl)pyridin-2-amine]
< 8 mg/mL: solubility (organic solvent or mixture, 1,4-Dioxane) | solubility (organic solvent or mixture, 1-Butanol) | solubility (organic solvent or mixture, 2-Ethoxyethanol) | solubility (organic solvent or mixture, 2-Methyl THF) | solubility (organic solvent or mixture, Acetone) | solubility (organic solvent or mixture, Acetonitrile) | solubility (organic solvent or mixture, Cyclohexane) | solubility (organic solvent or mixture, Dichloromethane) | solubility (organic solvent or mixture, Diisopropyl ether) | solubility (organic solvent or mixture, Ethanol) | solubility (organic solvent or mixture, Ethyl acetate) | solubility (organic solvent or mixture, Heptane) | solubility (organic solvent or mixture, Isopropyl acetate) | solubility (organic solvent or mixture, Methylethyl ketone) | solubility (organic solvent or mixture, Methylisobutyl ketone) | solubility (organic solvent or mixture, Tetrahydrofuran) | solubility (organic solvent or mixture, Toluene) | solubility (organic solvent or mixture, tert-Butylmethyl ether)
Good solubility: observation in solubility screen (2-Propanol) | observation in solubility screen (2-Propanol:water (50:50)) | observation in solubility screen (Acetone:water (90:10)) | observation in solubility screen (Dimethylsulfoxide) | observation in solubility screen (Methanol) | observation in solubility screen (Water)
~16 mg/mL: solubility (organic solvent or mixture, Acetone:water (90:10))
~40 mg/mL: solubility (organic solvent or mixture, Methanol)
Colourless solution: observation in solubility screen (1,4-Dioxane) | observation in solubility screen (2-Methyl THF) | observation in solubility screen (Cyclohexane) | observation in solubility screen (Dichloromethane) | observation in solubility screen (Diisopropyl ether) | observation in solubility screen (Heptane) | observation in solubility screen (Isopropyl acetate) | observation in solubility screen (Methylethyl ketone) | observation in solubility screen (Methylisobutyl ketone) | observation in solubility screen (Toluene) | observation in solubility screen (tert-Butylmethyl ether)
~400 mg/mL: solubility (aqueous with cosolvent or surfactant or cyclodextrin, 2-Propanol:water (50:50))
~126 mg/mL: solubility (organic solvent or mixture, Dimethylsulfoxide)
~25 mg/mL: solubility (organic solvent or mixture, 2-Propanol)
~769 mg/mL: solubility (Water)
